From patent publication US10370388B2, “Heterocyclic compounds and methods of their use” (NOVARTIS AG, priority 2012, dated 2019)

How the values were obtained:
NG108-15 neurite cells = assay: AT2 receptor neurite outgrowth assay; type: cell-based; conditions: NG108-15 cells, in the presence of angiotensin II 0.1 μM, compound 0.003-10 μM
Description: Biological Example 3: AT2 Receptor Neurite Outgrowth Assay
The general methodology of Wallinder (2008) and references cited therein was used to assess the effect of the compounds of the present invention on neurite outgrowth. The assay was adapted for high content screening.
EMA1087 is a known AT2 receptor agonist described as “compound 21” in Wan et al. 2004. PD-123,319 is a known, commercially available AT2 receptor antagonist. The results were analyzed by immunofluorescence quantitative analysis. Neurite outgrowth was quantified with neurite average length using Cellomics software. Results are expressed as the mean±SEM, each conducted in triplicate. Statistical significance, compared with Ang II control: *p<0.05, **p<0.01, and ***p<0.001. NS: no significant difference. ND: not determined. FIGS. 1 to 5 show neurite outgrowth was inhibited by the AT2 receptor antagonists, PD-126,055 and compounds 6, 15, 21 and 28.

AT2 receptor = AT2 receptor (Homo sapiens (Human), UniProt P50052); assay: AT2 receptor binding assay ([125I]-CGP42112A, HEK293/AT2 receptor cell membranes); conditions: displacement of [125I]-CGP42112A
Description: Trypsin-EDTA (for preparation of 100 mL) • Trypsin 0.25 g • 2% EDTA 2 mL • PBS 98 mL • Dissolve trypsin in 2% EDTA and PBS completely; sterilize the solution by passing through a […] membrane filter; store at 4° C. • 2. […] Add slowly with stirring. • Dilute to 1 liter with ddH2O. • Sterilize the medium immediately by filtration. • Store at 4° C. • 3. TE buffer • 20 mM Tris-HCl, pH 7.4, • 5 mM EDTA • 4. Binding Assay Buffer • 50 mM Hepes, pH 7.4 • 5 mM MgCl2 • 1 mM CaCl2 • 0.2% BSA • 5.
Cells were ready for transfection after overnight incubation (the confluence reaches around 80%). • 75 μL Lipofectamine™2000 diluted in 6.25 mL OptiMEM I Reduced Serum Medium, was mixed gently, and incubated at room temperature for 5 minutes. 50 μg expression plasmid DNA diluted in 6.25 mL OptiMEM I Reduced Serum Medium without serum was mixed gently. • After the 5 minute incubation, the diluted DNA was combined with the diluted Lipofectamine™2000 (total volume is 12.5 mL).
Solutions of all compounds were prepared by microplate liquid handling equipment such as Janus or Precision 2000. Compounds, dissolved in DMSO were stored in a Freezer. Compounds were prepared from 30 mM in 100% DMSO.
All the compounds were diluted using Precision 2000 microplate liquid handling equipment. The top concentration of compound was 5 mM with 100% DMSO.
Step 3: Assay Plate Preparation (96 Well Plate)

AT1 receptor = AT1 receptor (Homo sapiens (Human), UniProt P30556); assay: AT1 receptor binding assay ([125I]-Sar1-Ile8-Angiotensin II, HEK293/AT1 receptor cell membranes); conditions: similar assay, at 10 μM
Source text: Biological Example 2: AT1 Receptor Binding
The same media, solutions, cell procedures and compound preparation was used as for Biological Example 1 but using HEK293/AT1 Receptor Transient Cells.

Chain of AT2 receptor (P50052 whole entry, species assumed): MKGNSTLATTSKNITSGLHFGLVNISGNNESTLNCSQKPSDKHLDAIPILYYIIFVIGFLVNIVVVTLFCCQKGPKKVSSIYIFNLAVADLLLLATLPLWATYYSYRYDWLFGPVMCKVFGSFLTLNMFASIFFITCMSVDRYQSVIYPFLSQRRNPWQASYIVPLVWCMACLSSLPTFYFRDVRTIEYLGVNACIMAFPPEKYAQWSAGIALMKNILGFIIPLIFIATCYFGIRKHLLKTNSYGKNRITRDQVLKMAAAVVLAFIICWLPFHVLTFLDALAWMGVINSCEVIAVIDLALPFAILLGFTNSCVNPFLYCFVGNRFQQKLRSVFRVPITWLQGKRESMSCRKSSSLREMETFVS
Chain of AT1 receptor (P30556 whole entry, species assumed): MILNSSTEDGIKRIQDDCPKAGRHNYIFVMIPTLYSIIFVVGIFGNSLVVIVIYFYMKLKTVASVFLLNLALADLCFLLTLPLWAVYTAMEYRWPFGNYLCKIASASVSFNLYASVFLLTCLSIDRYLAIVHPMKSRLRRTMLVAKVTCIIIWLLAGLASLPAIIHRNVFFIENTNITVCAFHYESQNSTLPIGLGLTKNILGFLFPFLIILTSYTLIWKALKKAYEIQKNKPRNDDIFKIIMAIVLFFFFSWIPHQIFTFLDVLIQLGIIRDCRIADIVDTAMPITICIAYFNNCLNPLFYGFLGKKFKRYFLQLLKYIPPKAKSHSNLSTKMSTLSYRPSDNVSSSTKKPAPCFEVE

O=C(O)C1Cc2c(OCc3ccccc3)cccc2N1C(=O)C(c1ccccc1)c1ccccc1 (stereo not drawn) [Compound 15, 4-(benzyloxy)-1-(2,2-diphenylacetyl)indoline-2-carboxylic acid]
neurite outgrowth (neurite average length) (NG108-15 neurite cells): inhibited

O=C(O)[C@@H]1C[C@H](c2sccc2-c2ccccc2)CN1C(=O)C(c1ccccc1)c1ccccc1 [Compound 107, (2S,4S)-1-(2,2-diphenylacetyl)-4-(3-phenylthiophen-2-yl)-pyrrolidine-2-carboxylic acid]
IC50 (AT2 receptor): 461 nM

CN(C)S(=O)(=O)NC(=O)[C@@H]1C[C@H](OCCCc2ccccc2)CN1C(=O)C(c1ccccc1)c1ccccc1 [Compound 112, (2S,4S)—N—(N,N-dimethylsulfamoyl)-1-(2,2-diphenylacetyl)-4-(3-phenylpropoxy)pyrrolidine-2-carboxamide]
AT1 receptor binding (AT1 receptor): —: No significant inhibition of binding of the radiolabelled ligand even at top concentration tested (10 μM). Compounds 6, 112, 136 and 138 were also analysed in a similar assay and showed no AT1 receptor binding at 10 μM.

CN(CCCc1ccc(F)cc1)[C@H]1C[C@@H](C(N)=O)N(C(=O)C(c2ccccc2)c2ccccc2)C1 [Compound 136, (2S,4S)-1-(2,2-diphenylacetyl)-4-((3-(4-fluorophenyl)propyl)(methyl)amino)pyrrolidine-2-carboxamide]
AT1 receptor binding (AT1 receptor): —: No significant inhibition of binding of the radiolabelled ligand even at top concentration tested (10 μM). Compounds 6, 112, 136 and 138 were also analysed in a similar assay and showed no AT1 receptor binding at 10 μM. | IC50 (AT2 receptor): 89 nM

CN(CCCc1ccc(F)cc1)[C@H]1C[C@@H](C#N)N(C(=O)C(c2ccccc2)c2ccccc2)C1 [Compound 137, (2S,4S)-1-(2,2diphenylacetyl)-4-((3-(4-fluorophenyl)propyl)(methyl)amino)pyrrolidine-2-carbonitrile]
IC50 (AT2 receptor): 173 nM
